Laboratory results taken from article PMC11790914, “Chemogenomics for steroid hormone receptors (NR3)” (Communications Chemistry, 2025).
“And” between values parts separate entries of the source, which are not always exact repeats. Identical values can stand only once.

Columns and labels:
HEK293T cells [1] = assay: Cytotoxicity: growth-rate (change in confluence over 24 h); settings: normalized to 0.1% DMSO control, single replicates (n=1...)
GSK3B = molecular target: T1, GSK3B (Homo sapiens, UniProt P49841); assay: Liability panel screening by DSF: GSK3B; assay type: binding; settings: DSF, 20 µM, n=2
T1 construct: made in house

CSNK1D = molecular target: T2, CSNK1D (Homo sapiens, UniProt P48730); assay: Liability panel screening by DSF: CSNK1D; assay type: binding; settings: DSF, 20 µM, n=2
T2 construct: made in house
Procedure, shortened: (§1)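 ∆Tm in K was taken from Boltzmann-fitted unfolding inflection points, run in duplicate with a temperature ramp of 3 °C per minute up to 85 °C. Each recombinant protein (2 µM) was in HEPES 10 mM pH 7.5 and NaCl 500 mM, with SYPRO Orange dye at 1:1000.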

ABL1 = molecular target: T3, ABL1 (Homo sapiens, UniProt P00519); assay: Liability panel screening by DSF: ABL1; assay type: binding; settings: DSF, 20 µM, n=2
T3 construct: made in house
Procedure, shortened: as §1

NR3C4 (AR) = settings: ref Supplementary Table 1, cited from earlier work
[2] = system: ATF6 activity in Hela ATF6 reporter cells; assay: Endoplasmic reticulum stress assay (ATF6 Renilla luciferase reporter, tunicamycin); assay type: cell-based; settings: single replicates n=1 to n=5
Procedure, shortened: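 ER stress was induced by 100 ng/mL tunicamycin added 4 h after compound (0.1% DMSO) to HeLa ATF6 reporter cells. After 18 h more, Renilla luciferase signal was read and expressed relative to DMSO control, n=5 biological replicates.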

MAPK1 = molecular target: T4, MAPK1 (Homo sapiens, UniProt P28482); assay: Liability panel screening by DSF: MAPK1; assay type: binding; settings: DSF, 20 µM, n=2
T4 construct: made in house
Procedure, shortened: as §1

BRD4 = molecular target: T5, BRD4 (Homo sapiens, UniProt O60885); assay: Liability panel screening by DSF: BRD4; assay type: binding; settings: DSF, 20 µM, n=2
T5 construct: This panel comprised ten highly ligandable kinases and bromodomains; made in house
Procedure, shortened: as §1

NR3C3 (PR) = settings: cited from earlier work
[3] = known off-target outside the NR family at the recommended concentration; ref Supplementary Table 1 (superscript references); cited from earlier work
TRIM24 = molecular target: T6, TRIM24 (Homo sapiens, UniProt O15164); assay: Liability panel screening by DSF: TRIM24; assay type: binding; settings: DSF, 20 µM, n=2
T6 construct: This panel comprised ten highly ligandable kinases and bromodomains; made in house
T6 sequence (O15164 899-1004 limits assumed): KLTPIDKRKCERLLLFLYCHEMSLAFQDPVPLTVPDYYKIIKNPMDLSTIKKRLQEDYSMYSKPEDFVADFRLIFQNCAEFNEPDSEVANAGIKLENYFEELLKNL
Procedure, shortened: as §1

[4] = system: NF-κB activity in HEK293 NF-κB reporter cells; assay: NF-kB activity assay (GFP reporter, ionomycin/PMA); assay type: cell-based; settings: n=3
Procedure, shortened: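 Reporter readout: GFP-expressing cells normalized to confluence, imaged every 90 min across 24 h after ionomycin (100 ng/mL)/PMA (10 ng/mL) stimulation of HEK293 cells pre-treated 4 h with compound (0.1% DMSO); triplicate independent experiments.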

NR3C1 (GR) = settings: ref Supplementary Table 1, cited from earlier work
BRPF1 = molecular target: T7, BRPF1 (Homo sapiens, UniProt P55201); assay: Liability panel screening by DSF: BRPF1; assay type: binding
T7 construct: This panel comprised ten highly ligandable kinases and bromodomains; made in house
T7 sequence (P55201 628-732 limits assumed): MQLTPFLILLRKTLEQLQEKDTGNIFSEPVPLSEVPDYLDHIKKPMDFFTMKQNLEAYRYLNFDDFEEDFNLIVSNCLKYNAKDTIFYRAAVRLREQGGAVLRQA
Procedure, shortened: as §1

HEK293T cells [5] = assay: Cytotoxicity: metabolic activity (WST-8 / CCK-8 assay); settings: HEK293T, 24 h, WST-8, normalized to 0.1% DMSO, single replicates
HEK293T cells [6] = assay: Cytotoxicity: apoptosis induction (caspase-3/7 DEVD fluorogenic DNA dye); settings: HEK293T, 24 h, apoptotic cell count normalized to 0.1% DMSO, single replicates
FGFR3 = molecular target: T8, FGFR3 (Homo sapiens, UniProt P22607); assay: Liability panel screening by DSF: FGFR3; assay type: binding; settings: DSF, 20 µM, n=2
T8 construct: made in house
Procedure, shortened: as §1

CDK2 = molecular target: T9, CDK2 (Homo sapiens, UniProt P24941); assay: Liability panel screening by DSF: CDK2; assay type: binding; settings: DSF, 20 µM, n=2
T9 construct: made in house
Procedure, shortened: as §1

HEK293T cells [7] = assay: Cytotoxicity: necrosis induction (red fluorescent dye for permeable plasma membranes); assay type: cell-based; settings: 24 h, necrotic cell count normalized to 0.1% DMSO, single replicates;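 also: compounds applied in DMEM high glucose with 0.1% FCS and 0.1% DMSO, necrotic HEK293T cells counted by red staining of cells whose plasma membranes had become permeable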
AURKA = molecular target: T10, AURKA (Homo sapiens, UniProt O14965); assay: Liability panel screening by DSF: AURKA; assay type: binding; settings: DSF, 20 µM, n=2
T10 construct: made in house
T10 sequence (O14965 1-403): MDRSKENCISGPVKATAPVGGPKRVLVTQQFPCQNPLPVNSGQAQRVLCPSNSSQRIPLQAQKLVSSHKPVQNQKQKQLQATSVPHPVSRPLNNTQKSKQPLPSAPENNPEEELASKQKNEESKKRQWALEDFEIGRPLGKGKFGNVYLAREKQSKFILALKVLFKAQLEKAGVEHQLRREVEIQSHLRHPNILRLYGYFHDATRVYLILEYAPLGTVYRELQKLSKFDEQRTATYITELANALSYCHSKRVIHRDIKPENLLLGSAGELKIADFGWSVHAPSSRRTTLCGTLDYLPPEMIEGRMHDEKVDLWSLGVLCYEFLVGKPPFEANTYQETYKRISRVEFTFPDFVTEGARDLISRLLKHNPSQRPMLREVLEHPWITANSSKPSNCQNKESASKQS
Procedure, shortened: as §1

NR3C2 (MR) = settings: (lit.); ref Supplementary Table 1; read-out: Potency [nM] EC50, NR3C2 (MR); cited from earlier work

T1 sequence (P49841 whole entry, species assumed): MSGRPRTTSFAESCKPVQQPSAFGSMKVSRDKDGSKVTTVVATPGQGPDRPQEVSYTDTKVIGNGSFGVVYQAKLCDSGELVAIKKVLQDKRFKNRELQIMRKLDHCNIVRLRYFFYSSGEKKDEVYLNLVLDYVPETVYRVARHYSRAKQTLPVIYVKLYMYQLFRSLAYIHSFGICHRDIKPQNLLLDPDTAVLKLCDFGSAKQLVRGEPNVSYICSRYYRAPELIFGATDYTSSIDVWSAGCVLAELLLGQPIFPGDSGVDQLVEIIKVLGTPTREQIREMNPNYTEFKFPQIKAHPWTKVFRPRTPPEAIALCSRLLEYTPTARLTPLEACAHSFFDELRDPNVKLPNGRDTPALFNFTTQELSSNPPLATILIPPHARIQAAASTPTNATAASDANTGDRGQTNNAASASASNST
T3 sequence (P00519 whole entry, species assumed): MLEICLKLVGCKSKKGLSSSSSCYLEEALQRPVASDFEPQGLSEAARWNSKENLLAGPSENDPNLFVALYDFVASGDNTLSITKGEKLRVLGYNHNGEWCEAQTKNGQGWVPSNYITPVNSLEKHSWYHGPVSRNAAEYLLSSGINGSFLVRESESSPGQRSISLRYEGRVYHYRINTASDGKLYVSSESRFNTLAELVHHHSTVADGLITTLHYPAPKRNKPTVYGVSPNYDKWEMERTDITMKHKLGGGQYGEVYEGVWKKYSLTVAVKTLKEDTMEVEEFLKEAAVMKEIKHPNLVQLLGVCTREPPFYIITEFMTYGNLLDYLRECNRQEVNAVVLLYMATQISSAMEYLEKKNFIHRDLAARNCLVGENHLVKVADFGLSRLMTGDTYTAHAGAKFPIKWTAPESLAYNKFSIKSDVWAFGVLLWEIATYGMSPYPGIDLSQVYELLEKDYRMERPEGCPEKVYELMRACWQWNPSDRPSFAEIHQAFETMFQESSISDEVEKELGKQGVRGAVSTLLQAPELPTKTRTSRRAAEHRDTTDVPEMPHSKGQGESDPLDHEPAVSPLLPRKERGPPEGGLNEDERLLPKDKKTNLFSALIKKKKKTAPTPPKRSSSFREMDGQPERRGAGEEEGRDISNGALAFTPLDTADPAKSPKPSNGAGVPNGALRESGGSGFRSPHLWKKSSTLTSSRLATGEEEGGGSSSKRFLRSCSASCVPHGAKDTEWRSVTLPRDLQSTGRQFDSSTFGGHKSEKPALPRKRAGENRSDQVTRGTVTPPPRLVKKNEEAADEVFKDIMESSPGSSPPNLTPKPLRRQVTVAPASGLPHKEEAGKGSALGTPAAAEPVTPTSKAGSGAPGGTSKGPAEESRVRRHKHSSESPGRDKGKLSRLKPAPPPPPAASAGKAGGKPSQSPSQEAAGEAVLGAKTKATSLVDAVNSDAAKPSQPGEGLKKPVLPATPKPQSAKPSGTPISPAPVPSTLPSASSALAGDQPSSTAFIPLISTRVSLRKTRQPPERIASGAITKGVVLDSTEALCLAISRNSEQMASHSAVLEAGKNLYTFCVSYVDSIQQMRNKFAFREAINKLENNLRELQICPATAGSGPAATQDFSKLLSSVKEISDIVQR
T4 sequence (P28482 whole entry, species assumed): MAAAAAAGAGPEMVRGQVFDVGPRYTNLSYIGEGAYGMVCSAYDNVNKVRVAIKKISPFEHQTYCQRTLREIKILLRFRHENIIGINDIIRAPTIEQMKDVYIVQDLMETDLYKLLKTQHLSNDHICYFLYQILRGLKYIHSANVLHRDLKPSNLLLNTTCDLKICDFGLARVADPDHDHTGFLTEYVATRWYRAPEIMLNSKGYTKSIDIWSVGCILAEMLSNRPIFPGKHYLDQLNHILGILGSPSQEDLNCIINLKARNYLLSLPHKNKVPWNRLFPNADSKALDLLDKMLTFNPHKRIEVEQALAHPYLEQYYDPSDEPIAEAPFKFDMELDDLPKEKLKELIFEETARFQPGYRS
T2 sequence (P48730 whole entry, species assumed): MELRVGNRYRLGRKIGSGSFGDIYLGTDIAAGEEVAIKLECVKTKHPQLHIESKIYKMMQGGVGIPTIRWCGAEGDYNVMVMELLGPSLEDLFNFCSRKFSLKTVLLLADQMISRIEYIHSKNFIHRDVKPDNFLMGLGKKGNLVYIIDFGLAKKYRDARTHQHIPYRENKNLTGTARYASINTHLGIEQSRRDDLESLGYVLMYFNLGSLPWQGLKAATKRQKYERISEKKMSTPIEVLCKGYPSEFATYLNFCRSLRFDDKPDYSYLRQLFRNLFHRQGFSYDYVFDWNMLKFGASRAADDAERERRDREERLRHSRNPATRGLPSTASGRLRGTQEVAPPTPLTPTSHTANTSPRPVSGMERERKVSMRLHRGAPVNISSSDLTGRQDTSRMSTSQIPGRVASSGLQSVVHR
T8 sequence (P22607 23-806, species assumed): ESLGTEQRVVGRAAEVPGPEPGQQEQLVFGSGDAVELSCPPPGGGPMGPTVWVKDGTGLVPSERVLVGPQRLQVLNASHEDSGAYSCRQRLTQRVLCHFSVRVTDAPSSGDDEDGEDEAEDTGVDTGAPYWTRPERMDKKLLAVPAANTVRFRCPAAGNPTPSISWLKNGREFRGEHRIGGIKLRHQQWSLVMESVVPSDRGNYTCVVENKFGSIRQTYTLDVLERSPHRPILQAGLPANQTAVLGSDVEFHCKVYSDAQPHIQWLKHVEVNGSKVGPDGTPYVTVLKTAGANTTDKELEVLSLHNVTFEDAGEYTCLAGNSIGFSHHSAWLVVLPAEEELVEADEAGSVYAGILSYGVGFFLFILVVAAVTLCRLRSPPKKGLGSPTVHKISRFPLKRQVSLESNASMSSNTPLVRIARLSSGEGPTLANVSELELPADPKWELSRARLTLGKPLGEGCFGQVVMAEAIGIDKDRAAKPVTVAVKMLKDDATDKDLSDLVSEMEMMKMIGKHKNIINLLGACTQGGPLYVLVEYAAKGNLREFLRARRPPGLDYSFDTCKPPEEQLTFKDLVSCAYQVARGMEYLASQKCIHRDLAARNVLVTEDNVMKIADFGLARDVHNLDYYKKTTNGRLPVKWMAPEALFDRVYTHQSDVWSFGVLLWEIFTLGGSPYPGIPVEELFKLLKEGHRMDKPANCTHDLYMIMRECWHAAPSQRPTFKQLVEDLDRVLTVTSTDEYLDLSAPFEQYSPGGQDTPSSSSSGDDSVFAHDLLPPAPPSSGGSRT

Medroxyprogesterone
Growth rate [GR] (HEK293T cells [1]; 0.3 µM): 0.94 and 1.01 and 1.09 and 1.40 and 1.04 (2×) and 0.87 and 1.11 and 0.76 and 1.34 | Mean ΔTM GSK3B (GSK3B): -0.99 K | Mean ΔTM CSNK1D (CSNK1D): -0.11 K | Mean ΔTM ABL1 (ABL1): -0.24 K | rel. activity from literature, NR3C4 (AR): % of DHT (NR3C4 (AR); of DHT (dihydrotestosterone)): 159 ± 10% | IC50 (NR3C4 (AR); read-out: Potency [nM] IC50, NR3C4 (AR), (lit.)): 6 ± 1 nM | ER stress [rel. ATF6 activity] ([2]; 0.3 µM): 0.98 and 0.97 and 1.05 and 0.94 and 0.96 | Mean ΔTM MAPK1 (MAPK1): 0.18 K | Mean ΔTM BRD4 (BRD4): -1.17 K | EC50 (NR3C3 (PR); (lit.), ref Supplementary Table 1, read-out: Potency [nM] EC50, NR3C3 (PR)): 0.15 ± 0.05 nM | rel. activity from literature, NR3C3 (PR): % of PGN (NR3C3 (PR); of PGN (progesterone)): 80 ± 7% | Other off-target at recom. conc. [3]: 17β-HSD2 and 17β-HSD3 and 17β-HSD1 | Mean ΔTM TRIM24 (TRIM24): -0.75 K | Mean NFκB response ([4]; 0.3 µM, 1,5 h): 2817.45 GFP+-cells/confluence ∙ 1000 | Mean NFκB response ([4]; 0.3 µM, 4,5 h): 3349.18 GFP+-cells/confluence ∙ 1000 | Mean NFκB response ([4]; 0.3 µM, 7,5 h): 6986.39 GFP+-cells/confluence ∙ 1000 | Mean NFκB response ([4]; 0.3 µM, 10,5 h): 17788.45 GFP+-cells/confluence ∙ 1000 | Mean NFκB response ([4]; 0.3 µM, 13,5 h): 26308.75 GFP+-cells/confluence ∙ 1000 | Mean NFκB response ([4]; 0.3 µM, 16,6 h): 32691.58 GFP+-cells/confluence ∙ 1000 | Mean NFκB response ([4]; 0.3 µM, 19,5 h): 37046.67 GFP+-cells/confluence ∙ 1000 | Mean NFκB response ([4]; 0.3 µM, 22,5 h): 41020.00 GFP+-cells/confluence ∙ 1000 | Mean NFκB response ([4]; 0.3 µM, 3 h): 2918.53 GFP+-cells/confluence ∙ 1000 | Mean NFκB response ([4]; 0.3 µM, 6 h): 4035.46 GFP+-cells/confluence ∙ 1000 | Mean NFκB response ([4]; 0.3 µM, 9 h): 12242.08 GFP+-cells/confluence ∙ 1000 | Mean NFκB response ([4]; 0.3 µM, 12 h): 21999.86 GFP+-cells/confluence ∙ 1000 | Mean NFκB response ([4]; 0.3 µM, 15 h): 29772.36 GFP+-cells/confluence ∙ 1000 | Mean NFκB response ([4]; 0.3 µM, 18 h): 34990.00 GFP+-cells/confluence ∙ 1000 | Mean NFκB response ([4]; 0.3 µM, 21 h): 39166.67 GFP+-cells/confluence ∙ 1000 | Mean NFκB response ([4]; 0.3 µM, 24 h): 41696.67 GFP+-cells/confluence ∙ 1000 | EC50 (NR3C1 (GR); (lit.), read-out: Potency [nM] EC50, NR3C1 (GR)): 10 ± 1 nM | rel. activity from literature, NR3C1 (GR): % of dexamethasone (DXM) (NR3C1 (GR); of dexamet./DXM): 157 ± 22% | Mean ΔTM BRPF1 (BRPF1; DSF, 20 µM, n=2): 0.25 K | Metabolic activity [MA] (HEK293T cells [5]; 0.3 µM): 0.94 and 1.01 and 0.93 and 1.08 | Apoptosis induction [AI] (HEK293T cells [6]; 0.3 µM): 0.76 and 0.77 and 1.07 and 0.74 (2×) and 0.88 | Mean ΔTM FGFR3 (FGFR3): -0.32 K | Mean ΔTM CDK2 (CDK2): -0.39 K | Necrosis induction [NI] (HEK293T cells [7]; 0.3 µM): 0.91 (2×) and 1.04 and 0.81 | Mean ΔTM AURKA (AURKA): 0.0165 K

C[C@]12CCC(=O)C=C1CC[C@@H]1[C@@H]2[C@@H](O)C[C@]2(C=O)[C@@H](C(=O)CO)CC[C@@H]12 [Aldosterone]
Growth rate [GR] (HEK293T cells [1]; 1 µM): 0.87 and 0.57 and 0.92 and 1.28 and 0.95 and 0.82 and 0.93 and 0.54 and 0.81 and -0.31 | ΔTm at 20 µM (GSK3B; read-out: Mean ΔTM GSK3B): -0.23 °C | ΔTm at 20 µM (CSNK1D; read-out: Mean ΔTM CSNK1D): -2.48e-05 °C | ΔTm at 20 µM (ABL1; read-out: Mean ΔTM ABL1): -0.26 °C | activity at 1 µM ([2]; Homo sapiens, HeLa, 1 µM, read-out: ER stress [rel. ATF6 activity]): 80% | ΔTm at 20 µM (MAPK1; read-out: Mean ΔTM MAPK1): 0.17 °C | ΔTm at 20 µM (BRD4; read-out: Mean ΔTM BRD4): 0.17 °C | ΔTm at 20 µM (TRIM24; read-out: Mean ΔTM TRIM24): -0.91 °C | Mean NFκB response ([4]; 1 µM, 1,5 h): 2799.98 GFP+-cells/confluence ∙ 1000 | Mean NFκB response ([4]; 1 µM, 4,5 h): 3728.04 GFP+-cells/confluence ∙ 1000 | Mean NFκB response ([4]; 1 µM, 7,5 h): 7006.53 GFP+-cells/confluence ∙ 1000 | Mean NFκB response ([4]; 1 µM, 10,5 h): 14006.47 GFP+-cells/confluence ∙ 1000 | Mean NFκB response ([4]; 1 µM, 13,5 h): 19614.51 GFP+-cells/confluence ∙ 1000 | Mean NFκB response ([4]; 1 µM, 16,6 h): 24279.62 GFP+-cells/confluence ∙ 1000 | Mean NFκB response ([4]; 1 µM, 19,5 h): 27366.03 GFP+-cells/confluence ∙ 1000 | Mean NFκB response ([4]; 1 µM, 22,5 h): 29896.67 GFP+-cells/confluence ∙ 1000 | Mean NFκB response ([4]; 1 µM, 3 h): 3180.38 GFP+-cells/confluence ∙ 1000 | Mean NFκB response ([4]; 1 µM, 6 h): 4651.42 GFP+-cells/confluence ∙ 1000 | Mean NFκB response ([4]; 1 µM, 9 h): 10914.09 GFP+-cells/confluence ∙ 1000 | Mean NFκB response ([4]; 1 µM, 12 h): 17161.43 GFP+-cells/confluence ∙ 1000 | Mean NFκB response ([4]; 1 µM, 15 h): 22438.14 GFP+-cells/confluence ∙ 1000 | Mean NFκB response ([4]; 1 µM, 18 h): 25981.67 GFP+-cells/confluence ∙ 1000 | Mean NFκB response ([4]; 1 µM, 21 h): 28773.18 GFP+-cells/confluence ∙ 1000 | Mean NFκB response ([4]; 1 µM, 24 h): 30941.17 GFP+-cells/confluence ∙ 1000 | EC50 (NR3C2 (MR)): 0.34 ± 0.04 nM | ΔTm at 20 µM (BRPF1; read-out: Mean ΔTM BRPF1): -1.02 °C | Metabolic activity [MA] (HEK293T cells [5]; 1 µM): 1.07 (2×) and 1.02 and 0.98 and 1.08 and 0.99 (2×) and 0.93 | Apoptosis induction [AI] (HEK293T cells [6]; 1 µM): 0.40 and 0.56 and 0.73 and 0.75 and 0.46 and 0.86 | ΔTm at 20 µM (FGFR3; read-out: Mean ΔTM FGFR3): -0.16 °C | ΔTm at 20 µM (CDK2; read-out: Mean ΔTM CDK2): -0.06 °C | Necrosis induction [NI] (HEK293T cells [7]; 1 µM): 0.75 and 0.67 and 0.68 and 0.72 | ΔTm at 20 µM (AURKA; read-out: Mean ΔTM AURKA): 0.1 °C
